Among the data in PubChem BioAssay (NCI) are TGI values, retold here.

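These data come from cells grown in 96-well plates and exposed to compound for 48 hours at five concentrations. TGI denotes the concentration required for complete inhibition of growth.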

By TGI is commonly meant the concentration at which net growth stops. Low values mean more potent growth arrest, high ones less potent growth arrest.

Among the test systems are OVCAR-3 ovarian; MDA-N; NCI/ADR-RES ovarian; MOLT-4 leukemia; NCI-H226 lung; RPMI-8226 leukemia; NCI-H23 lung; HT29 colon; UO-31 renal; OVCAR-4 ovarian; SW-620 colon; ACHN renal; SK-OV-3 ovarian; UACC-62 melanoma; SF-539 CNS; HOP-62 NSCLC; NCI-H522 lung; PC-3 prostate.
Test in all cases: DTP human tumour cell line panel, 48 h

For `C#C[C@]1(O)CC[C@H]2[C@@H]3CCC4=C/C(=N\OCCN(CC)CC)CC[C@]4(C)[C@H]3CC[C@@]21C`, the total growth inhibition concentration (TGI) with OVCAR-3 ovarian worked out at 8.91 µM; in the assay on MDA-N it was 6.24 µM; in the assay with NCI/ADR-RES ovarian it was 8.5 µM; in the assay with MOLT-4 leukemia, 1.04 µM; with NCI-H226 lung, 29.8 µM; with RPMI-8226 leukemia it was 5.83 µM. Also, the TGI in the assay on NCI-H23 lung is 19.7 µM; in the assay with HT29 colon, 14.6 µM; in the assay with UO-31 renal, 15.8 µM; with OVCAR-4 ovarian, 50.4 µM; with SW-620 colon it was greater than 29.1 µM; in the assay with ACHN renal it was 28.1 µM. Besides, the total growth inhibition concentration (TGI) in the assay with SK-OV-3 ovarian was determined as 34.4 µM; in the assay on UACC-62 melanoma it was 11.3 µM; with SF-539 CNS, 10.1 µM; with HOP-62 NSCLC it was 16 µM; with NCI-H522 lung, 5.76 µM; with PC-3 prostate it was 16.1 µM.
In the case of `O=C1CCCCC(=O)Nc2ccccc2N1`, the TGI in the assay with OVCAR-3 ovarian, in the assay with MDA-N, in the assay with NCI/ADR-RES ovarian, with MOLT-4 leukemia, with NCI-H226 lung and in the assay with RPMI-8226 leukemia was greater than 100 µM each time. In addition, the TGI in the assay with NCI-H23 lung, in the assay on HT29 colon, in the assay on UO-31 renal, in the assay with OVCAR-4 ovarian, in the assay on SW-620 colon and in the assay with ACHN renal was greater than 100 µM each time. For the same compound, the TGI with SK-OV-3 ovarian, in the assay on UACC-62 melanoma, in the assay on SF-539 CNS, with HOP-62 NSCLC, in the assay with NCI-H522 lung and with PC-3 prostate was greater than 100 µM in each case.
`CCCC(=O)OCC1OC(n2cc(F)c(=O)[nH]c2=O)C(F)C1OC(=O)CCC` (stereo not drawn): the concentration for total growth inhibition (TGI) in the assay on OVCAR-3 ovarian, with MDA-N, in the assay with NCI/ADR-RES ovarian, in the assay on MOLT-4 leukemia, in the assay with NCI-H226 lung and in the assay on RPMI-8226 leukemia was greater than 100 µM each time. Besides, the TGI in the assay on NCI-H23 lung, with HT29 colon, in the assay on UO-31 renal, in the assay with OVCAR-4 ovarian, in the assay on SW-620 colon and in the assay on ACHN renal was greater than 100 µM each time. The TGI in the assay with SK-OV-3 ovarian is greater than 100 µM; in the assay with UACC-62 melanoma, greater than 100 µM; in the assay with SF-539 CNS it was 27.5 µM; with HOP-62 NSCLC, greater than 100 µM; in the assay with NCI-H522 lung it was greater than 100 µM; with PC-3 prostate it was greater than 100 µM.
As for `CCOC(=O)/C(C[C@H]1OC(C)(C)O[C@@H]1[C@H]1COC(C)(C)O1)=N/O`, the TGI with OVCAR-3 ovarian, with MDA-N, in the assay on NCI/ADR-RES ovarian, with MOLT-4 leukemia, in the assay on NCI-H226 lung and in the assay on RPMI-8226 leukemia was greater than 100 µM each time. Further, the TGI with NCI-H23 lung, in the assay on HT29 colon, with UO-31 renal, with OVCAR-4 ovarian, in the assay on SW-620 colon and with ACHN renal was greater than 100 µM throughout. The TGI in the assay on SK-OV-3 ovarian, in the assay on UACC-62 melanoma, with SF-539 CNS, with HOP-62 NSCLC, with NCI-H522 lung and in the assay with PC-3 prostate was greater than 100 µM in each case.
In the case of `CC1(C)CCC[C@@]2(C)C1C(=O)[C@@H]1O[C@]1(C)[C@@H]2CO` (stereo partly drawn), the TGI is 50.8 µM with OVCAR-3 ovarian; greater than 100 µM in the assay with MDA-N; greater than 100 µM in the assay on NCI/ADR-RES ovarian; greater than 100 µM with MOLT-4 leukemia; greater than 100 µM in the assay with NCI-H226 lung; 53.4 µM in the assay with RPMI-8226 leukemia. For the same compound, the TGI is 67.9 µM in the assay with NCI-H23 lung; greater than 100 µM in the assay on HT29 colon; greater than 100 µM in the assay on UO-31 renal; greater than 100 µM in the assay with OVCAR-4 ovarian; greater than 100 µM in the assay on SW-620 colon; greater than 100 µM in the assay with ACHN renal. The TGI is greater than 100 µM in the assay with SK-OV-3 ovarian; greater than 100 µM in the assay with UACC-62 melanoma; greater than 100 µM with SF-539 CNS; greater than 100 µM in the assay on HOP-62 NSCLC; 93.1 µM with NCI-H522 lung; greater than 100 µM in the assay on PC-3 prostate.
With `Cn1c2ccccc2n2c3ccccc3c(=O)c(C#N)c12`, the TGI with OVCAR-3 ovarian is greater than 100 µM; with MDA-N it was greater than 100 µM; in the assay on NCI/ADR-RES ovarian it was greater than 60.1 µM; in the assay on MOLT-4 leukemia, 17.8 µM; with NCI-H226 lung, 34.1 µM; in the assay with RPMI-8226 leukemia, greater than 26.7 µM. In addition, the TGI with NCI-H23 lung is greater than 59.8 µM; in the assay with HT29 colon, greater than 100 µM; with UO-31 renal, greater than 71.2 µM; in the assay with OVCAR-4 ovarian, greater than 100 µM; in the assay with SW-620 colon, greater than 100 µM; with ACHN renal, 13.6 µM. The TGI in the assay with SK-OV-3 ovarian was greater than 100 µM; in the assay with UACC-62 melanoma, greater than 58.3 µM; in the assay on SF-539 CNS it was greater than 80.8 µM; in the assay with HOP-62 NSCLC, greater than 100 µM; in the assay on NCI-H522 lung it was 58.1 µM; in the assay on PC-3 prostate, greater than 100 µM.
